Measurements from ChEMBL document CHEMBL1145159 (J Med Chem, 2005).
Several values for one entry are separate records, joined by “and”; a condition that tells them apart may be missing. Identical values can stand only once. Peptide text beside a SMILES is read from it.

Tests used:
[1] = target: T1, Neuronal acetylcholine receptor; alpha4/beta2 (Homo sapiens, UniProt P17787+P43681); assay: Maximal response against Nicotinic acetylcholine receptor alpha4-beta2; format: protein-complex assay
[2] = target: T2, Neuronal acetylcholine receptor; alpha2/beta4 (Homo sapiens, UniProt P30926+Q15822); assay: Maximal response against Nicotinic acetylcholine receptor alpha2-beta4; format: protein-complex assay
[3] = target: T3, Neuronal acetylcholine receptor subunit alpha-7 (Homo sapiens, UniProt P36544); assay: Effective concentration against Nicotinic acetylcholine receptor alpha 7
[4] = target: T4, Neuronal acetylcholine receptor; alpha4/beta4 (Homo sapiens, UniProt P30926+P43681); assay: Maximal response against Nicotinic acetylcholine receptor alpha4-beta4; format: protein-complex assay
[5] = target: T5, Neuronal acetylcholine receptor; alpha3/beta2 (Homo sapiens, UniProt P17787+P32297); assay: Effective concentration against Nicotinic acetylcholine receptor alpha3-beta2; format: protein-complex assay
[6] = target: T4, Neuronal acetylcholine receptor; alpha4/beta4; assay: Effective concentration against Nicotinic acetylcholine receptor alpha4-beta4; format: protein-complex assay
[7] = target: T6, Neuronal acetylcholine receptor; alpha3/beta4 (Homo sapiens, UniProt P30926+P32297); assay: Maximal response against Nicotinic acetylcholine receptor alpha3-beta4; format: protein-complex assay
[8] = target: T6, Neuronal acetylcholine receptor; alpha3/beta4; assay: Effective concentration against Nicotinic acetylcholine receptor alpha3-beta4; format: protein-complex assay
[9] = target: T2, Neuronal acetylcholine receptor; alpha2/beta4; assay: Effective concentration against Nicotinic acetylcholine receptor alpha2-beta4; format: protein-complex assay
[10] = target: T1, Neuronal acetylcholine receptor; alpha4/beta2; assay: Effective concentration against Nicotinic acetylcholine receptor alpha4-beta2; format: protein-complex assay
[11] = target: T1, Neuronal acetylcholine receptor; alpha4/beta2; assay: (§1) Inhibitory concentration against Nicotinic acetylcholine receptor alpha4-beta2; format: protein-complex assay
[12] = target: T5, Neuronal acetylcholine receptor; alpha3/beta2; assay: Inhibitory concentration against Nicotinic acetylcholine receptor alpha3-beta2; format: protein-complex assay
[13] = target: T6, Neuronal acetylcholine receptor; alpha3/beta4; assay: Inhibitory concentration against Nicotinic acetylcholine receptor alpha3-beta4; format: protein-complex assay
[14] = target: T3, Neuronal acetylcholine receptor subunit alpha-7; assay: Inhibitory concentration against Nicotinic acetylcholine receptor alpha 7
[15] = target: T5, Neuronal acetylcholine receptor; alpha3/beta2; assay: Maximal response against Nicotinic acetylcholine receptor alpha3-beta2; format: protein-complex assay
[16] = target: Neuronal acetylcholine receptor subunit alpha-7 (Rattus norvegicus) (UniProt Q05941); assay: Maximal response against Nicotinic acetylcholine receptor alpha 7
[17] = target: T1, Neuronal acetylcholine receptor; alpha4/beta2; assay: as §1; format: protein-complex assay; remark: listed apart in the source
[18] = target: T2, Neuronal acetylcholine receptor; alpha2/beta4; assay: Inhibitory concentration against Nicotinic acetylcholine receptor alpha2-beta4; format: protein-complex assay
[19] = target: T3, Neuronal acetylcholine receptor subunit alpha-7; assay: Inhibitory concentration against Nicotinic acetylcholine receptor alpha-7 expressed in xenopus oocytes; format: cell-based; details: xenopus oocyte
[20] = target: T4, Neuronal acetylcholine receptor; alpha4/beta4; assay: Ki or IC50 concentration against Nicotinic acetylcholine receptor alpha4-beta4 expressed in xenopus oocytes; format: cell-based; details: Oocyte
[21] = Inhibitory concentration against Nicotinic acetylcholine receptor alpha2-beta4 expressed in xenopus oocytes; format: cell-based; details: oocyte
[22] = Inhibitory concentration against Nicotinic acetylcholine receptor alpha3-beta4 expressed in xenopus oocytes; format: cell-based; details: oocyte
[23] = target: T1, Neuronal acetylcholine receptor; alpha4/beta2; assay: Ki or IC50 concentration against Nicotinic acetylcholine receptor alpha4-beta2 expressed in xenopus oocytes; format: cell-based; details: Oocyte
[24] = Effective concentration against Nicotinic acetylcholine receptor alpha4-beta2 expressed in xenopus oocytes; format: cell-based; details: oocyte
[25] = Effective concentration against Nicotinic acetylcholine receptor alpha3-beta4 expressed in xenopus oocytes; format: cell-based; details: oocyte
[26] = target: T5, Neuronal acetylcholine receptor; alpha3/beta2; assay: Effective concentration against Nicotinic acetylcholine receptor alpha3-beta2 expressed in xenopus oocytes; format: cell-based, Oocyte

T3 sequence (P36544 whole entry): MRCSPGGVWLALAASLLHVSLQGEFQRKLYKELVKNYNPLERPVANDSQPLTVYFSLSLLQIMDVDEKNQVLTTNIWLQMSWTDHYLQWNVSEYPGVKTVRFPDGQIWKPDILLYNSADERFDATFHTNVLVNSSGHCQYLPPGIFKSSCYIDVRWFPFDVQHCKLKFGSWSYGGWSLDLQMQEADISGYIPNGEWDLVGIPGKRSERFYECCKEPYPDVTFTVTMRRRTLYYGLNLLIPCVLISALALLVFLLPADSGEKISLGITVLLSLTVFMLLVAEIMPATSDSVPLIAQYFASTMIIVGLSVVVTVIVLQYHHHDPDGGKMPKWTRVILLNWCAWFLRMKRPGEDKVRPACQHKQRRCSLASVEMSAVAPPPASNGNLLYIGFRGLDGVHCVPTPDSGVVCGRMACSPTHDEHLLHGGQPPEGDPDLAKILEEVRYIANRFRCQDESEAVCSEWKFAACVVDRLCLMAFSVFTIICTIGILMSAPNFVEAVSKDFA
T4 sequence (P30926 whole entry): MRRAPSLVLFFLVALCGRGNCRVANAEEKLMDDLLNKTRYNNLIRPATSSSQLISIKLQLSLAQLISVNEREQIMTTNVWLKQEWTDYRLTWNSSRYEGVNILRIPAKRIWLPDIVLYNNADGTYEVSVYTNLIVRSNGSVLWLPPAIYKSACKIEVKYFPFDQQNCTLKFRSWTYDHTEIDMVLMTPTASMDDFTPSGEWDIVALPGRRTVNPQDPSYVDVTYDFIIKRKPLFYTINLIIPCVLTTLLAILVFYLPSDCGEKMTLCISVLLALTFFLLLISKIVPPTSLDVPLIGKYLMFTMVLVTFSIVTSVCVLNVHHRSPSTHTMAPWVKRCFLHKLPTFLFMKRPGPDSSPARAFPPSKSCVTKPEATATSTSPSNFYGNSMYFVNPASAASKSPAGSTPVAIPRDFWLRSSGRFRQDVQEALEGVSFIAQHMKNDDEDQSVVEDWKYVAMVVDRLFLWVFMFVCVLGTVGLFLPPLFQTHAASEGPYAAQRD
T4 sequence (P43681 whole entry): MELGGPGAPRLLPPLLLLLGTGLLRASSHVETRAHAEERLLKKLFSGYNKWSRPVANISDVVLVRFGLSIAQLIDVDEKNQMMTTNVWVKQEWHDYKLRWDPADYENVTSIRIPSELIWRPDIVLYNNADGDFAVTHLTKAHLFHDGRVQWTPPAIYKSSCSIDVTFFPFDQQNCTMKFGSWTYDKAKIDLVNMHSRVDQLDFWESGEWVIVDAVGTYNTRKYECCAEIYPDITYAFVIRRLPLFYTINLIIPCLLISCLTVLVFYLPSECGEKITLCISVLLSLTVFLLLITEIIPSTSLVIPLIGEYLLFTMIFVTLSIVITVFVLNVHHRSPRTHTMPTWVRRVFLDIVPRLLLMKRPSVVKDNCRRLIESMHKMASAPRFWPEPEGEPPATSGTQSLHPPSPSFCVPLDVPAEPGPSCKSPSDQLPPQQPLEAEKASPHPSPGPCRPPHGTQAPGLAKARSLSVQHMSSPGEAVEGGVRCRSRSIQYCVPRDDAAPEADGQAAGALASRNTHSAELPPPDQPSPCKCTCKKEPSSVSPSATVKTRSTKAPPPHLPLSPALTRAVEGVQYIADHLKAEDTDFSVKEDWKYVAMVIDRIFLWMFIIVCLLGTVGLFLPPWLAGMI
T6 sequence (P30926 whole entry): as the sequence (P30926 whole entry) above
T6 sequence (P32297 whole entry): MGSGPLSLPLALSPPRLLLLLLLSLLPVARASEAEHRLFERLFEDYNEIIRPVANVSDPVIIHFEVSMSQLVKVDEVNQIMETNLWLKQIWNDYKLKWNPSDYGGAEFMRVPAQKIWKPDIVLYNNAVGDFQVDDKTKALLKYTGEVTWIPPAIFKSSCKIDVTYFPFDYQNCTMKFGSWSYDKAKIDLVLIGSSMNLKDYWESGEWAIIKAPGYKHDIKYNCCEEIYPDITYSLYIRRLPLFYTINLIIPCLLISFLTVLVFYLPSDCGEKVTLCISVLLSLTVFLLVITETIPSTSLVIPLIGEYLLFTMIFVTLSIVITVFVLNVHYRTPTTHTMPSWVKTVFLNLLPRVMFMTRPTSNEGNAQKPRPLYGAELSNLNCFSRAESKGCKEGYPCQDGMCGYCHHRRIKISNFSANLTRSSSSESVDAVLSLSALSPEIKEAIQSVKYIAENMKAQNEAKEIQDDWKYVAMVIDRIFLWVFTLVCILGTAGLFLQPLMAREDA
Neuronal acetylcholine receptor subunit alpha-7 (Rattus norvegicus), sequence (Q05941 whole entry): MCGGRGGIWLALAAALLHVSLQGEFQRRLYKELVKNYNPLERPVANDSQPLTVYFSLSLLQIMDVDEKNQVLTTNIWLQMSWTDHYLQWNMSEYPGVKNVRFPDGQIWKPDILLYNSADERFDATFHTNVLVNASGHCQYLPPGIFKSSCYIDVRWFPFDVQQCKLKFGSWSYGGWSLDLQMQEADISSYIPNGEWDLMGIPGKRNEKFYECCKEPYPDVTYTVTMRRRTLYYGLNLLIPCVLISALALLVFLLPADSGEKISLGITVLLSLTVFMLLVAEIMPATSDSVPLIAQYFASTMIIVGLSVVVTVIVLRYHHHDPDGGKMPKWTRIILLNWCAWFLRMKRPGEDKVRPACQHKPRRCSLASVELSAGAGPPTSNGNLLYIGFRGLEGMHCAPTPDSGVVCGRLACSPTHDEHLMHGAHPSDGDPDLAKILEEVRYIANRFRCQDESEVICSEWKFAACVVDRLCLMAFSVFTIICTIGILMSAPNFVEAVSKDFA
T5 sequence (P17787 whole entry): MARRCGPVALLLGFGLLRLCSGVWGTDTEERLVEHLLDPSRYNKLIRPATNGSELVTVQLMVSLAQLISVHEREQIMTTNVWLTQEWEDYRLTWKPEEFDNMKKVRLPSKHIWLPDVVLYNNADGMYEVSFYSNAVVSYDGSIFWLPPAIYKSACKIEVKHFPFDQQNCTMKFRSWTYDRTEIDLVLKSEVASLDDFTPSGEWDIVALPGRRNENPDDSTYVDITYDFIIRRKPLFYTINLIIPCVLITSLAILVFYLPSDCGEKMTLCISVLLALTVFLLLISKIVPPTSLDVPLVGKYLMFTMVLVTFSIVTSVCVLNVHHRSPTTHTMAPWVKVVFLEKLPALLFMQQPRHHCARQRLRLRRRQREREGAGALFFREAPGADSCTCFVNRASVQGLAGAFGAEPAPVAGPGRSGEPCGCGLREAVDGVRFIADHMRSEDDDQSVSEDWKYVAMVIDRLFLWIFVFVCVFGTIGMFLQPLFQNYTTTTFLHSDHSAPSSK
T5 sequence (P32297 whole entry): as the sequence (P32297 whole entry) above
T1 sequence (P17787 whole entry): as the sequence (P17787 whole entry) above
T1 sequence (P43681 whole entry): as the sequence (P43681 whole entry) above
T2 sequence (P30926 whole entry): as the sequence (P30926 whole entry) above
T2 sequence (Q15822 whole entry): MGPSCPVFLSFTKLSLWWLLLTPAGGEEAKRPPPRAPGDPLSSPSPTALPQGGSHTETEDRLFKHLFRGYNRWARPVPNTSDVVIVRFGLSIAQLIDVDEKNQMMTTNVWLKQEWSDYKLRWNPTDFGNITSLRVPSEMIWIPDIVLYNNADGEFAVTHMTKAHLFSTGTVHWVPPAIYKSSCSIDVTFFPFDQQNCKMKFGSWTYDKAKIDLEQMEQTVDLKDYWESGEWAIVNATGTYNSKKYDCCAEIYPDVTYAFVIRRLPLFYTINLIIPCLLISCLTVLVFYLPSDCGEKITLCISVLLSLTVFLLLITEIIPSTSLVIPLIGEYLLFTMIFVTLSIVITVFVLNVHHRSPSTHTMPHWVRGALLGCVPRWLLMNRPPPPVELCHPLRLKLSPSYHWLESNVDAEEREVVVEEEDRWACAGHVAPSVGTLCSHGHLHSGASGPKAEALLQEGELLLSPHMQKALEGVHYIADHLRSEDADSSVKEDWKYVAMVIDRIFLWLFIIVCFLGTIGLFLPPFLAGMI

Structure (SMILES): C#Cc1cncc([C@@H]2CCCN2C)c1 [ALTINICLINE]
- Rmax [1]: 49%
- Rmax [2]: 49%
- EC50 [3]: > 10 µM
- Rmax [4]: 26%
- EC50 [5]: 3.2 µM
- EC50 [6]: 2 µM
- Rmax [7]: 52%
- EC50 [8]: 10 µM
- EC50 [9]: 3.2 µM
- EC50 [10]: 0.32 µM

Structure (SMILES): C[C@H](NC(=O)[C@H](C)NC(=O)[C@H](CS)NC(=O)[C@H](C)NC(=O)[C@@H]1CCCN1C(=O)[C@H](Cc1c[nH]cn1)NC(=O)[C@H](CO)NC(=O)[C@H](CS)NC(=O)[C@H](CS)NC(=O)CNC(=O)CN)C(=O)N[C@@H](CC(N)=O)C(=O)N[C@@H](CC(N)=O)C(=O)N[C@@H](CCC(N)=O)C(=O)N[C@@H](CC(=O)O)C(=O)N[C@@H](Cc1ccc(O)cc1)C(=O)N[C@@H](CS)C(N)=O
- IC50 [11]: 0.0003 µM
- IC50 [12]: 0.0003 µM
- IC50 [13]: 0.0003 µM
- IC50 [14]: 0.0003 µM

Structure (SMILES): Clc1ccc(C2=CCC[C@H]3CCC2N3)cn1
- Rmax [1]: 15%
- Rmax [2]: 50%
- Rmax [15]: 50%
- Rmax [4]: 70%
- Rmax [16]: 55%
- Rmax [7]: 50%

Structure (SMILES): CC[N+](CC)(CC)CCOc1ccc(/C=C/c2ccccc2)cc1
- Concentration [17]: 3.2 µM

Structure (SMILES): Clc1ccc(OC[C@H]2CCN2)cn1
- Rmax [7]: 116%

Structure (SMILES): CCN1C[C@]2(COC(=O)c3ccccc3N3C(=O)C[C@H](C)C3=O)CC[C@H](OC)[C@@]34[C@@H]5C[C@H]6[C@H](OC)[C@@H]5[C@](O)(C[C@@H]6OC)[C@](O)([C@@H](OC)[C@H]23)[C@@H]14 [METHYLLYCACONITINE]
- IC50 [12]: > 1 µM
- IC50 [18]: > 1 µM
- IC50 [13]: > 1 µM
- IC50 [14]: > 1 µM

Structure (SMILES): CN1CCC[C@H]1COc1cnc(Cl)c(-c2ccc(Cl)cc2)c1
- Concentration [17]: 0.96 µM
- IC50 [13]: 9.2 µM
- IC50 [14]: 8.5 µM

Structure (SMILES): O=c1c(I)ccc2n1C[C@@H]1CNC[C@H]2C1
- Rmax [1]: 47%
- Rmax [4]: 105%
- Rmax [16]: 107%

Structure (SMILES): CC(C)C[C@H](NC(=O)[C@H](C)NC(=O)[C@H](CS)NC(=O)[C@@H]1CCCN1C(=O)[C@@H]1CCCN1C(=O)[C@H](CC(C)C)NC(=O)[C@H](CO)NC(=O)[C@H](CS)NC(=O)[C@H](CS)NC(=O)CN)C(=O)N[C@@H](CO)C(=O)N[C@@H](CC(N)=O)C(=O)N1CCC[C@H]1C(=O)N[C@@H](CC(=O)O)C(=O)N[C@@H](Cc1ccc(O)cc1)C(=O)N[C@@H](CS)C(N)=O (H-GCCSLPPCALSNPDYC-NH2)
- IC50 [12]: 0.061 µM
- IC50 [14]: 0.061 µM

Structure (SMILES): CC(=O)CCN1C[C@@H]2C[C@H](C1)c1cccc(=O)n1C2
- Rmax [1]: 3%
- Rmax [16]: > 100%
- Rmax [7]: 11%

Structure (SMILES): O=C(NC1CN2CCC1CC2)c1ccc(-c2ccsc2)s1 (centres undefined)
- Rmax [16]: 100%
- EC50 [6]: > 10 µM
- EC50 [8]: > 10 µM
- EC50 [10]: > 10 µM

Structure (SMILES): CN(C)c1ccc(/C=C/C=C2\CCCN=C2c2cccnc2)cc1
- Rmax [1]: 0%
- Rmax [16]: 76%

Structure (SMILES): CCCC1CCCNC(c2cccnc2)C1 (centres undefined)
- Rmax [1]: 3%
- EC50 [3]: 44 µM
- Rmax [15]: 5%
- Rmax [7]: 2%

Structure (SMILES): O=C(NC1CN2CCC1CC2)c1ccc(-c2ccccn2)s1 (centres undefined)
- Rmax [16]: 100%
- EC50 [6]: > 10 µM
- EC50 [8]: > 10 µM
- EC50 [10]: > 10 µM

Structure (SMILES): CO[C@@H]1CC=C2CCN3CCC4=C(CC(=O)OC4)[C@@]23C1
- Concentration [17]: 2.7 µM
- Concentration [19]: 20 µM
- Concentration [20]: 0.01 µM
- IC50 [21]: 3.6 µM
- IC50 [13]: 43 µM and 240 µM
- IC50 [22]: 14 µM
- IC50 [14]: 98 µM
- Concentration [23]: 0.11 µM

Structure (SMILES): C[N+](C)(C)CCO
- Rmax [16]: 90% and 100%

Structure (SMILES): COc1cc2c(cn1)C1NCCC1CC2 (centres undefined)
- Rmax [1]: 8%
- Rmax [2]: 22%
- EC50 [3]: > 300 µM
- Rmax [4]: 44%
- Rmax [7]: 5%

Structure (SMILES): c1cncc(OC[C@@H]2CCN2)c1
- Rmax [1]: 185%
- Rmax [16]: 100%
- Rmax [7]: 100%

Structure (SMILES): CCOc1cncc(/C=C/CCN)c1
- Rmax [4]: 16%
- Rmax [7]: 55%

Structure (SMILES): O=C1NCC2(CN3CCC2CC3)O1 (centres undefined)
- EC50 [24]: > 2000 µM
- EC50 [25]: > 1000 µM
- Rmax [16]: 78%
- EC50 [26]: > 1000 µM
